# Test results as given in patent US20060189602A1, “Pyridazinone compounds” (Anadys Pharmaceuticals, Inc., priority 2004, published 2006).
# Target: HCV NS5B polymerase (Hepatitis C virus genotype 1b, UniProt P26663)
# Assay: NS5B Polymerase Inhibition Assay
# Type: biochemical
# Settings: 50 nM enzyme, [α-33P]GTP, oligo (rG13)/poly rC, 75 min at 28° C.
# Description: NS5B Polymerase Inhibition Assay
# Compounds were tested for HCV polymerase inhibition. Assays were performed in a 96-well streptavidin-coated FlashPlate using 50 nM enzyme, 0.5 μCi of [α-^33P]GTP, 0.63 μM GTP, and 250 nM 5′biotinylated oligo (rG13)/poly rC in 20 mM Tris-HCl, pH 7.5, 5 mM MgCl2, 20 mM NaCl, 5 mM dithiothreitol, and 0.1 g/L BSA. The reaction was stopped by aspiration after 75 min at 28° C. and the plate was washed several times. After washing, incorporated radioactivity was counted using a Microbeta scintillation counter.
# HCV NS5B polymerase, sequence (P26663 2420-3010): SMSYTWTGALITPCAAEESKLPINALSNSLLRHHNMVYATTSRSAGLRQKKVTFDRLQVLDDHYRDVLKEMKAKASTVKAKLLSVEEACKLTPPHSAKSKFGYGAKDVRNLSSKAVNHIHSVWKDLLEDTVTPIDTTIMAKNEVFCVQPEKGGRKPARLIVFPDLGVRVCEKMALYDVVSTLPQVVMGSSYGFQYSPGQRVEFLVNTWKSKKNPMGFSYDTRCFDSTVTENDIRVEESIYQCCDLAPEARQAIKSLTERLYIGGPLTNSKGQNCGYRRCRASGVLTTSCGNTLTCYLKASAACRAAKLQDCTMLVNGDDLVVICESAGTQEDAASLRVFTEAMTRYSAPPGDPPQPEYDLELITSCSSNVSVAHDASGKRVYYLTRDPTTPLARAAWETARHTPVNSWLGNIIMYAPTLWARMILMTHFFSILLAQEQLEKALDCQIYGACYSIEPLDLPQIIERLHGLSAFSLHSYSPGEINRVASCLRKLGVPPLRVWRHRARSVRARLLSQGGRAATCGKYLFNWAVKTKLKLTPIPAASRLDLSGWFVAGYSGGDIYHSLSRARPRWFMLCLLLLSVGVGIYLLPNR
row,IC50 [µM],SMILES
1,< 10,"COc1ccc2c(c1)S(=O)(=O)NC(c1c(O)c(-c3cccs3)nn(CCC3CC3)c1=O)=N2 [Compound 3, 2-(2-Cyclopropyl-ethyl)-5-hydroxy-4-(7-methoxy-1,1-dioxo-1,2-di-hydro-1λ^6-benzo[1,2,4]thiadiazin-3-yl)-6-thiophen-2-yl-2H-py-ridazin-3-one]"
2,10 to 50,"COc1ccc2c(c1)S(=O)(=O)NC(c1c(O)c(-c3cccs3)nn(Cc3ccccc3)c1=O)=N2 [Compound 5, 2-Benzyl-5-hydroxy-4-(7-methoxy-1,1-dioxo-1,2-dihydro-1λ^6-ben-zo[1,2,4]thiadiazin-3-yl)-6-thiophen-2-yl-2H-py-ridazin-3-one]"
3,< 10,"O=c1c(C2=Nc3ccc(O)cc3S(=O)(=O)N2)c(O)c(-c2cccs2)nn1Cc1ccccc1 [Compound 6, 2-Benzyl-5-hydroxy-4-(7-hydroxy-1,1-dioxo-1,2-dihydro-1λ^6-ben-zo[1,2,4]thiadiazin-3-yl)-6-thiophen-2-yl-2H-pyridazin-3-one]"
4,< 10,"O=c1c(C2=Nc3ccc(O)cc3S(=O)(=O)N2)c(O)c(-c2cccs2)nn1CCC1CC1 [Compound 7, 2-(2-Cyclopropyl-ethyl)-5-hydroxy-4-(7-hydroxy-1,1-dioxo-1,2-di-hydro-1λ^6-benzo[1,2,4]thiadiazin-3-yl)-6-thiophen-2-yl-2H-py-ridazin-3-one]"
5,10 to 50,"COc1ccc2c(c1)S(=O)(=O)NC(c1c(O)c(-c3ccc(C)s3)nn(CCC(C)C)c1=O)=N2 [Compound 9, 5-Hydroxy-4-(7-methoxy-1,1-dioxo-1,2-dihydro-1λ^6-ben-zo[1,2,4]thiadiazin-3-yl)-2-(3-methyl-butyl)-6-(5-methyl-thio-phen-2-yl)-2H-pyridazin-3-one]"
6,10 to 50,"CCCCn1nc(C(C)C)c(O)c(C2=Nc3ccc(OC)cc3S(=O)(=O)N2)c1=O [Compound 10, 2-Butyl-5-hydroxy-6-isopropyl-4-(7-methoxy-1,1-dioxo-1,2-di-hydro-1λ^6-benzo[1,2,4]thiadiazin-3-yl)-2H-pyridazin-3-one]"
7,< 10,"CCCCn1nc(C(C)C)c(O)c(C2=Nc3ccc(O)cc3S(=O)(=O)N2)c1=O [Compound 11, 2-Butyl-5-hydroxy-4-(7-hydroxy-1,1-dioxo-1,2-dihydro-1λ^6-ben-zo[1,2,4]thiadiazin-3-yl)-6-isopropyl-2H-pyridazin-3-one]"
8,< 10,"CCCCn1nc(C(C)C)c(O)c(C2=Nc3ccc(OCC(N)=O)cc3S(=O)(=O)N2)c1=O [Compound 12, 2-[3-(2-Butyl-5-hydroxy-6-isopropyl-3-oxo-2,3-dihydro-py-ridazin-4-yl)-1,1-dioxo-1,2-dihdyro-1λ^6-ben-zo[1,2,4]thiadiazin-7-yloxy]-actamide]"
9,10 to 50,"CCCCn1nc(C(C)(C)CO)c(O)c(C2=Nc3ccc(OC)cc3S(=O)(=O)N2)c1=O [Compound 14, 2-Butyl-5-hydroxy-6-(2-hydroxy-1,1-dimethyl-ethyl)-4-(7-meth-oxy-1,1-dioxo-1,2-dihydro-1λ^6-benzo[1,2,4]thiadiazin-3-yl)-2H-py-ridazin-3-one]"
10,10 to 50,"CCCCn1nc(-c2ccccc2)c(O)c(C2=Nc3ccc(OC)cc3S(=O)(=O)N2)c1=O [Compound 15, 2-Butyl-5-hydroxy-4-(7-methoxy-1,1-dioxo-1,2-dihydro-1λ^6-ben-zo[1,2,4]thiadiazin-3-yl)-6-phenyl-2H-pyridazin-3-one]"
11,< 10,"CCCCn1nc(-c2cccs2)c(O)c(C2=Nc3ccc(OC)cc3S(=O)(=O)N2)c1=O [Compound 17, 2-Butyl-5-hydroxy-4-(7-methoxy-1,1-dioxo-1,2-dihydro-1λ^6-ben-zo[1,2,4]thiadiazin-3-yl)-6-thiophen-2-yl-2H-pyridazin-3-one]"
12,10 to 50,"O=c1c(C2=Nc3ccc(O)cc3S(=O)(=O)N2)c(O)c(-c2cccs2)nn1Cc1c(F)cccc1Cl [Compound 19, 2-(2-Chloro-6-fluoro-benzyl)-5-hydroxy-4-(7-hydroxy-1,1-di-oxo-1,2-dihydro-1λ^6-benzo[1,2,4]thiadiazin-3-yl)-6-thio-phen-2-yl-2H-pyridazin-3-one]"
